Structures can show the parent of a compound that is named as a salt.
Experiments:
[1] = cited from earlier work
[2] = Experimental: Therefore, drug-interaction studies were undertaken by the inventors and the samples were evaluated for chemical stability.
[3] = cited from earlier work; remark: listed apart in the source
[4] = oral, 80 mg strength IR tablets; cited from earlier work

For `CNC1=Nc2ccc(Cl)cc2C(c2ccccc2)=[N+]([O-])C1.Cl` [Chlordiazepoxide HCl, Chlordiazepoxide hydrochloride], the “plasma levels after administration is discontinued” value ([1]; after discontinuation) is listed as “decline slowly over a period of several days”, the half-life ([1]; in vivo) is listed as 24 to 48 h and the “time for peak blood levels to be reached” value ([1]; in vivo) is listed as “several hours”.

In the case of `CCOc1ccc(/C=C2\NCCc3cc(OCC)c(OCC)cc32)cc1OCC` [Drotaverine HCl, Drotaverine hydrochloride], the “chemical stability / degradation in acidic environment” value [2] is reported as “best chemical stability”, the “degradation in basic conditions” value [2] is reported as “degrades significantly” and the “degradation in oxidative conditions / peroxide solution” value [2] is reported as “degrades significantly”.

For `CCOc1ccc(/C=C2\NCCc3cc(OCC)c(OCC)cc32)cc1OCC` [Drotaverine], the “oral LD50” value [3] is given as greater than 1000 mg/Kg body weight and the “drug absorption from small intestine” value [4] is given as roughly 90%.
